Results taken from US11912723B2, “KRAS modulators and uses thereof” (Quanta Therapeutics, Inc., priority 2022, dated 2024).

Test system: AGS (KRAS G12D) cells, phospho-ERK
Experiment: pERK In Cell Western (ICW) assay (Method B)
Assay type: cell-based
Conditions: 3 hours
Method in brief: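 AGS cells seeded at 5,000/well, grown overnight, then treated 3 h at 37 °C with ½-log 10-point dilutions (top 10 μM). Fixed cells stained for phospho-ERK, normalized to DRAQ5 DNA signal and to DMSO control; IC50 from 4-parameter variable-slope fit.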

SMILES | IC50 (Homo sapiens) | IC50
CN(C)C(=O)c1cc2n(n1)CCCN(c1nc(OC[C@@]34CCCN3C[C@H](F)C4)nc3c1CN(C)[C@@]1(CCCc4ccc(O)cc41)C3)C2 [Compound 39A, 5-[(7S)-2-[[(2R,8S)-2-fluoro-1,2,3,5,6,7-hexahydropyrrolizin-8-yl]methoxy]-7′-hydroxy-6-methyl-spiro[5,8-dihydropyrido[4,3-d]pyrimidine-7,1′-tetralin]-4-yl]-N,N-dimethyl-4,6,7,8-tetrahydropyrazolo[1,5-a][1,4]diazepine-2-carboxamide] | 0.1 to 1 µM | –
Cc1c(C(=O)N(C)C)nn2c1CN(c1nc(OC[C@@]34CCCN3C[C@H](F)C4)nc3c1CO[C@@]1(CCc4c(Cl)cccc41)C3)CCC2 [Compound 42, 5-[(7S)-4′-chloro-2-[[(2R,8S)-2-fluoro-1,2,3,5,6,7-hexahydropyrrolizin-8-yl]methoxy]spiro[5,8-dihydropyrano[4,3-d]pyrimidine-7,1′-indane]-4-yl]-N,N,3-trimethyl-4,6,7,8-tetrahydropyrazolo[1,5-a][1,4]diazepine-2-carboxamide] | 0.1 to 1 µM | –
O=C(c1nn2c(c1Cl)CN(c1nc(OC[C@@]34CCCN3C[C@H](F)C4)nc3c1CO[C@@]1(CCc4c(Cl)cccc41)C3)CCC2)N1CCOCC1 [Compound 45, [3-chloro-5-[(7S)-4′-chloro-2-[[(2R,8S)-2-fluoro-1,2,3,5,6,7-hexahydropyrrolizin-8-yl]methoxy]spiro[5,8-dihydropyrano[4,3-d]pyrimidine-7,1′-indane]-4-yl]-4,6,7,8-tetrahydropyrazolo[1,5-a][1,4]diazepin-2-yl]-morpholino-methanone] | 0.1 to 1 µM | –
C[C@@]1(NC#N)CCCN(c2nc(OC[C@@]34CCCN3C[C@H](F)C4)nc3c2COC2(CCc4c(Cl)cccc42)C3)C1 (stereo partly drawn) [Compound 46A, [(3R)-1-[(7*)-4′-chloro-2-[[(2R,8S)-2-fluoro-1,2,3,5,6,7-hexahydropyrrolizin-8-yl]methoxy]spiro[5,8-dihydropyrano[4,3-d]pyrimidine-7,1′-indane]-4-yl]-3-methyl-3-piperidyl]cyanamide; 2,2,2-trifluoroacetic acid] | – | > 10 µM
CN(C)C(=O)c1nn2c(c1Cl)CN(c1nc(OCC3(CN4CCOCC4)CC3)nc3c1CO[C@@]1(CCc4c(Cl)cccc41)C3)CCC2 [Compound 47, 3-chloro-5-[(7S)-4′-chloro-2-[[1-(morpholinomethyl)cyclopropyl]methoxy]spiro[5,8-dihydropyrano[4,3-d]pyrimidine-7,1′-indane]-4-yl]-N,N-dimethyl-4,6,7,8-tetrahydropyrazolo[1,5-a][1,4]diazepine-2-carboxamide] | 1 to 10 µM | –
O=C(c1nn2c(c1Cl)CN(c1nc(OC[C@@]34CCCN3C[C@H](F)C4)nc3c1CO[C@@]1(CCc4c(Cl)cccc41)C3)CCC2)N1CCNCC1 [Compound 49, [3-chloro-5-[(7S)-4′-chloro-2-[[(2R,8S)-2-fluoro-1,2,3,5,6,7-hexahydropyrrolizin-8-yl]methoxy]spiro[5,8-dihydropyrano[4,3-d]pyrimidine-7,1′-indane]-4-yl]-4,6,7,8-tetrahydropyrazolo[1,5-a][1,4]diazepin-2-yl]-piperazin-1-yl-methanone] | 0.1 to 1 µM | –
CN1CCN(C(=O)c2nn3c(c2Cl)CN(c2nc(OC[C@@]45CCCN4C[C@H](F)C5)nc4c2CO[C@@]2(CCc5c(Cl)cccc52)C4)CCC3)CC1 [Compound 50, [3-chloro-5-[(7S)-4′-chloro-2-[[(2R,8S)-2-fluoro-1,2,3,5,6,7-hexahydropyrrolizin-8-yl]methoxy]spiro[5,8-dihydropyrano[4,3-d]pyrimidine-7,1′-indane]-4-yl]-4,6,7,8-tetrahydropyrazolo[1,5-a][1,4]diazepin-2-yl]-(4-methylpiperazin-1-yl)methanone] | 0.1 to 1 µM | –
CN(C)C(=O)c1nn2c(c1Cl)CN(c1nc(OC[C@@]34CCCN3C[C@H](F)C4)nc3c1CN(C)[C@@]1(CCc4c(Cl)cccc41)C3)CCC2 [Compound 55, 3-chloro-5-((S)-4-chloro-2′-(((2R,7aS)-2-fluorotetrahydro-1H-pyrrolizin-7a(5H)-yl)methoxy)-6′-methyl-2,3,5′,8′-tetrahydro-6′H-spiro[indene-1,7′-pyrido[4,3-d]pyrimidin]-4′-yl)-N,N-dimethyl-5,6,7,8-tetrahydro-4H-pyrazolo[1,5-a][1,4]diazepine-2-carboxamide] | 0.1 to 1 µM | –
CN1Cc2c(nc(OC[C@@]34CCCN3C[C@H](F)C4)nc2N2CCC[C@]3(C2)NC(=O)NC3=O)C[C@]12CCc1ccccc12 [Compound 60, (5R)-9-[(7S)-2-[[(2R,8S)-2-fluoro-1,2,3,5,6,7-hexahydropyrrolizin-8-yl]methoxy]-6-methyl-spiro[5,8-dihydropyrido[4,3-d]pyrimidine-7,1′-indane]-4-yl]-1,3,9-triazaspiro[4.5]decane-2,4-dione] | > 10 µM | –
CN(C)C(=O)c1nn2c(c1Cl)CN(c1nc(OC[C@@]34CCCN3C[C@H](F)C4)nc3c1CN(C)[C@@]1(CCc4c(F)ccc(F)c41)C3)CCC2 [Compound 61, 3-chloro-5-[(7S)-4′,7′-difluoro-2-[[(2R,8S)-2-fluoro-1,2,3,5,6,7-hexahydropyrrolizin-8-yl]methoxy]-6-methyl-spiro[5,8-dihydropyrido[4,3-d]pyrimidine-7,1′-indane]-4-yl]-N,N-dimethyl-4,6,7,8-tetrahydropyrazolo[1,5-a][1,4]diazepine-2-carboxamide] | 0.01 to 0.1 µM | –
CN(C)C(=O)c1nn2c(c1Cl)CN(c1nc(OC[C@@]34CCCN3C[C@H](F)C4)nc3c1CN(C)[C@@]1(CCc4cccc(F)c41)C3)CCC2 [Compound 63, 3-chloro-5-[(7S)-7′-fluoro-2-[[(2R,8S)-2-fluoro-1,2,3,5,6,7-hexahydropyrrolizin-8-yl]methoxy]-6-methyl-spiro[5,8-dihydropyrido[4,3-d]pyrimidine-7,1′-indane]-4-yl]-N,N-dimethyl-4,6,7,8-tetrahydropyrazolo[1,5-a][1,4]diazepine-2-carboxamide] | 0.01 to 0.1 µM | –
CN(C)C(=O)c1nn2c(c1Cl)CN(c1nc(OC[C@@]34CCCN3C[C@H](F)C4)nc3c1CN(C)[C@@]1(CCc4c(F)cccc41)C3)CCC2 [Compound 65, 3-chloro-5-[(7S)-4′-fluoro-2-[[(2R,8S)-2-fluoro-1,2,3,5,6,7-hexahydropyrrolizin-8-yl]methoxy]-6-methyl-spiro[5,8-dihydropyrido[4,3-d]pyrimidine-7,1′-indane]-4-yl]-N,N-dimethyl-4,6,7,8-tetrahydropyrazolo[1,5-a][1,4]diazepine-2-carboxamide] | 0.01 to 0.1 µM | –
CN(C)C(=O)c1nn2c(c1Cl)CN(c1nc(OC[C@@]34CCCN3C[C@H](F)C4)nc3c1CN(C)[C@@]1(CCc4cccc(Cl)c41)C3)CCC2 [Compound 69, 3-chloro-5-[(7S)-7′-chloro-2-[[(2R,8S)-2-fluoro-1,2,3,5,6,7-hexahydropyrrolizin-8-yl]methoxy]-6-methyl-spiro[5,8-dihydropyrido[4,3-d]pyrimidine-7,1′-indane]-4-yl]-N,N-dimethyl-4,6,7,8-tetrahydropyrazolo[1,5-a][1,4]diazepine-2-carboxamide] | 0.01 to 0.1 µM | –
CN(C)C(=O)c1cc2n(n1)CCCN(c1nc(OC[C@@]34CCCN3C[C@H](F)C4)nc3c1CN(C)[C@@]1(CCCc4ccccc41)C3)C2 [Compound 72, 5-[(7S)-2-[[(2R,8S)-2-fluoro-1,2,3,5,6,7-hexahydropyrrolizin-8-yl]methoxy]-6-methyl-spiro[5,8-dihydropyrido[4,3-d]pyrimidine-7,1′-tetralin]-4-yl]-N,N-dimethyl-4,6,7,8-tetrahydropyrazolo[1,5-a][1,4]diazepine-2-carboxamide] | 0.1 to 1 µM | –
CN1Cc2c(nc(OC[C@@]34CCCN3C[C@H](F)C4)nc2N2CCCn3nc(N)c(Cl)c3C2)C[C@]12CCCc1ccccc12 [Compound 79, 3-chloro-5-[(7S)-2-[[(2R,8S)-2-fluoro-1,2,3,5,6,7-hexahydropyrrolizin-8-yl]methoxy]-6-methyl-spiro[5,8-dihydropyrido[4,3-d]pyrimidine-7,1′-tetralin]-4-yl]-4,6,7,8-tetrahydropyrazolo[1,5-a][1,4]diazepin-2-amine] | 1 to 10 µM | –
CN1Cc2c(nc(OC[C@@]34CCCN3C[C@H](F)C4)nc2N2C[C@H]3CC[C@@H](C2)N3)C[C@]12CCCc1ccccc12 [Compound 84, (7S)-4-[(1R,5S)-3,8-diazabicyclo[3.2.1]octan-3-yl]-2-[[(2R,8S)-2-fluoro-1,2,3,5,6,7-hexahydropyrrolizin-8-yl]methoxy]-6-methyl-spiro[5,8-dihydropyrido[4,3-d]pyrimidine-7,1′-tetralin]] | 1 to 10 µM | –
Cc1nc(-c2nn3c(c2Cl)CN(c2nc(OC[C@@]45CCCN4C[C@H](F)C5)nc4c2CN(C)[C@@]2(CCCc5ccccc52)C4)CCC3)no1 [Compound 87, 3-[3-chloro-5-[(7S)-2-[[(2R,8S)-2-fluoro-1,2,3,5,6,7-hexahydropyrrolizin-8-yl]methoxy]-6-methyl-spiro[5,8-dihydropyrido[4,3-d]pyrimidine-7,1′-tetralin]-4-yl]-4,6,7,8-tetrahydropyrazolo[1,5-a][1,4]diazepin-2-yl]-5-methyl-1,2,4-oxadiazole] | 0.1 to 1 µM | –
CN(C)CC1(COc2nc3c(c(N4CCCn5nc(C(=O)N(C)C)c(Cl)c5C4)n2)CN(C)[C@@]2(CCCc4ccccc42)C3)CC1(F)F (stereo partly drawn) [Compound 97, 3-chloro-5-[(7S)-2-[[1-[(dimethylamino)methyl]-2,2-difluoro-cyclopropyl]methoxy]-6-methyl-spiro[5,8-dihydropyrido[4,3-d]pyrimidine-7,1′-tetralin]-4-yl]-N,N-dimethyl-4,6,7,8-tetrahydropyrazolo[1,5-a][1,4]diazepine-2-carboxamide] | 1 to 10 µM | –
CN1Cc2c(nc(OC[C@@]34CCCN3C[C@H](F)C4)nc2N2CCCn3nc(-c4nnnn4C)c(Cl)c3C2)C[C@]12CCCc1ccccc12 [Compound 99, (7S)-4-[3-chloro-2-(1-methyltetrazol-5-yl)-4,6,7,8-tetrahydropyrazolo[1,5-a][1,4]diazepin-5-yl]-2-[[(2R,8S)-2-fluoro-1,2,3,5,6,7-hexahydropyrrolizin-8-yl]methoxy]-6-methyl-spiro[5,8-dihydropyrido[4,3-d]pyrimidine-7,1′-tetralin]] | 0.1 to 1 µM | –
